Results taken from ChEMBL document CHEMBL3244019, “Chemical and biological studies of 1-(2,5-dihydroxy-4-methylphenyl)-2-aminopropane, an analogue of 6-hydroxydopamine” (J Med Chem, 1979).

Legend:
Albumin [1] = molecular target: T1, Albumin (Bos taurus, UniProt P02769); assay: Covalent binding affinity to bovine serum albumin assessed per mol of BSA at 4.8 mM after 1 hr by combustion-LSC method; assay type: ADME; conditions: cattle, 4800 µM
Albumin [2] = molecular target: T1, Albumin; assay: Covalent binding affinity to bovine serum albumin at 4.8 mM after 1 hr by combustion-LSC method in presence of DDQ relative to control; assay type: ADME; conditions: cattle, 4800 µM
[3] = Half life in rabbit liver microsomes assessed as compound auto-oxidation at 37 uM; assay type: ADME, Oryctolagus cuniculus
[4] = Half life of the compound assessed as compound auto-oxidation in 0.1 M buffer at 37 uM at pH 7.4; assay type: physicochemical
[5] = Metabolic stability in rabbit liver homogenates with 90 ug of protein per ml assessed as compound auto-oxidation at 37 uM after 15 mins; assay type: ADME, tissue-based, Oryctolagus cuniculus; conditions: tissue homogenate, 0.25 h
[6] = Half life in rabbit liver homogenates with 13 ug of protein per ml assessed as compound auto-oxidation at 37 uM; assay type: ADME, tissue-based, Oryctolagus cuniculus; conditions: liver homogenate
[7] = Half life of the compound in 0.1 M metal-free buffer assessed as compound auto-oxidation at 37 uM at pH 7.4; assay type: physicochemical
Brain = assay: Drug uptake in Sprague-Dawley rat brain at 6.6 mg, iv after 2 hrs; assay type: ADME, organism-based; conditions: in vivo
[8] = Covalent binding in rabbit liver microsomal macromolecules at 60 uM after 15 mins in presence of NADPH; assay type: ADME, Oryctolagus cuniculus; conditions: microsomes, 0.25 h

T1 sequence (P02769 whole entry): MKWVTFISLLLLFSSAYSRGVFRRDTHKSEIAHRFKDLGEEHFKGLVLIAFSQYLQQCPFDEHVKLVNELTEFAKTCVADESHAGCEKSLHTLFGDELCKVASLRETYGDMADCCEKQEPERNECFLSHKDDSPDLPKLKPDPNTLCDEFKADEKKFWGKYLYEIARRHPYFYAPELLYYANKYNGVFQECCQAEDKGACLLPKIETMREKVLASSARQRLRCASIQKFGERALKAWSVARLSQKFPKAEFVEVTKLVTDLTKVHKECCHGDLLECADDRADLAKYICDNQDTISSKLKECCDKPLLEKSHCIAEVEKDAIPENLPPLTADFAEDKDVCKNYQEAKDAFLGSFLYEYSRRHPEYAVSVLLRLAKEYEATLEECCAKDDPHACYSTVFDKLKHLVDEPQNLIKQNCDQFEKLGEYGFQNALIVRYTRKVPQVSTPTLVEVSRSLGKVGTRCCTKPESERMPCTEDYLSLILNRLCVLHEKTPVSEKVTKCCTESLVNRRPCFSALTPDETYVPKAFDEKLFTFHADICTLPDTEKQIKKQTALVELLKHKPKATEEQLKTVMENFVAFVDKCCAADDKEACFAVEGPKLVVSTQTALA

Q: For `[3H]C([3H])([3H])C(N)C([3H])([3H])c1cc(O)c(C)cc1O` (centres undefined), which PB (Albumin [1]) is on record?
A: Its PB is 0.12 equiv.

Q: And the “fold change (FC)” value (Albumin [2])?
A: Its value is 2.

Q: For `Cc1cc(O)c(CC(C)N)cc1O` (centres undefined), which half-life at 37 µM [3] is on record?
A: Its half-life at 37 µM is 1.67 h.

Q: What about the half-life at 37 µM [4] of the same compound?
A: Its half-life at 37 µM is 0.167 h.

Q: What about the Stability [5] of the same compound?
A: Its Stability is “Stable”.

Q: And the half-life at 37 µM [6]?
A: Its half-life at 37 µM is 1.17 h.

Q: What about the half-life at 37 µM [7] of the same compound?
A: Its half-life at 37 µM is 3 h.

Q: With `[3H]C1C2=CC(=O)C(C)=CC2=NC1C` (centres undefined) as the compound, how does the Drug uptake (Brain) read?
A: The Drug uptake was 0.05%.

Q: With `[3H]C([3H])([3H])C(N)C([3H])([3H])c1cc(OC)c(C)cc1OC` (centres undefined) as the compound, how does the Activity [8] read?
A: Its Activity is 0.2%.
